Each structure is given as a SMILES string. Bounds are passed on as bounds.

Experiment [1] relates to small airway epithelial cells (SAEC). In words: Cell viability (MTT) assay, CSE-induced cell death. Format: cell-based, human. Particulars: 24 h, with fidarestat (10 μM in FIG. 1 legend, 20 μM in method). Here is the method: FIG. 1. Inhibition of AR prevents cigarette smoke extract (CSE)-induced cell-death in small airway epithelial cells (SAEC). MTT assay was performed after incubating the cells for 24 h with different concentrations of CSE in absence and presence of 10 μM Fidarestat. Bars (Mean±SD; n=6) represent the absorbance at 570 nm corresponding to live cells. Primary human Small Airway Epithelial Cells (SAEC) obtained from Lonza (Walkersville, Md.) were normal human SAEC harvested from distal airspace of donor. The cells were cultured according to the supplier's instructions at 37° C. in humidified atmosphere containing 95% air and 5% CO2 in small airway epithelial basal medium (SABM) with supplements containing 52 μg/ml bovine pituitary extract, 0.5 ng/ml human recombinant epidermal growth factor (EGF), 0.5 μg/ml epinephrine, 1 μg/ml hydrocortisone, 10 μg/ml transferrin, 5 μg/ml insulin, 0.1 ng/ml retinoic acid (RA), 6.5 ng/ml triiodothyronine, 50 μg/ml Gentamicin/Amphotericin-B (GA-1000), and 50 μg/ml fatty acid-free bovine serum albumin (BSA). […] Absorbance was read at 570 nm using a 96-well ELISA plate reader.

The subject of experiment [2] is SPDEF. In words: Western blot of SPDEF in IL-13-treated SAEC monolayer. Format: cell-based, human. As to conditions: airway epithelial monolayer, IL-13 24 and 48 h, immunoblotting. Here is the method:
FIGS. 6A-6B. AR inhibition prevents IL-13-induced expression of Mucin and transcription factor SPDEF in airway epithelial cell monolayer. (A) The airway epithelial cell monolayer at ALI was serum starved without or with fidarestat and incubated with IL-13 for 18 h. Total RNA was isolated and subsequently RT-PCR was performed to assess the expression of Muc5AC and SPDEF. The bar diagrams show densitometric analysis of the corresponding blots (n=4). *p<0.001 vs Control; **p<0.001 vs IL-13; (B) The monolayer of ciliated airway cells at ALI was treated with AR inhibitor for 24 h and subsequently incubated with IL-13 for 24 or 48 h. At the end of incubation, cell lysate was prepared and subjected to western blotting using antibodies against Muc5AC, Muc5B, and SPDEF. The membranes were stripped and re-probed with antibodies against GAPDH to show the equal loading of protein. A representative blot is shown (n=4). *p<0.0001 vs Control; **p<0.001 vs IL-13. […] Protein levels were determined using Bradford reagent (Biorad, Hercules, Calif.). […] The blots were then washed, exposed to HRP-conjugated secondary antibodies (1:5,000 dilution) for 1 h, and the antigen-antibody complex was detected by enhanced chemiluminescence (Amersham Pharmacia Biotech, Piscataway, N.J., USA). […]

Regarding `NC(=O)[C@@H]1C[C@]2(NC(=O)NC2=O)c2cc(F)ccc2O1` [fidarestat, (2S,4S)-2-aminoformyl-6-fluoro-spiro[chroman-4,4′-imidazolidine]-2′,5′-dione], the entries for the “cells alive after CSE” value in experiment [1] (12.5% CSE) and in experiment [1] (50% CSE) were “more than 95%” and more than 85%, respectively. In experiment [2], the “prevention of IL-13-induced increase in SPDEF protein” value is reported as approximately 50%.

Source of the values: US8785483B2, “Methods for treating COPD” (The Board of Regents of the University of Texas System, priority 2010, dated 2014).
